Source: US7173014B2, “HIV-specific synthetic oligonucleotides and methods of their use” (priority 1997, dated 2007)

System: HIV-2 (ROD)
Assay: XTT-based anti-HIV assay, HIV-2
Format: cell-based
Settings: XTT assay
Text: The initial experiment performed involved evaluation of Oligos 12, 32, and 41 against three laboratory strains of HIV-1 (IIIB, RF and SK1) and one strain of HIV-2 (ROD) in parallel with the positive control compound ddC in the XTT-based anti-HIV assay. All these oligonucleotides are active against both HIV-1 and HIV-2.
CEM-SS sells (AIDS Research and Reference Reagent Program, NIH) or other established human T cell lines used in these experiments were passaged in T-150 flasks for use in the assay. On the day preceding the assay, the cells were split 1:2 to assure they would be in an exponential growth phase at time of infection. On the day of assay the cells were washed twice with tissue culture medium and resuspended in fresh tissue cultures medium. Total cell and viability counting was performed using a hemacytometer and trypan blue dye exclusion. Cell viability was greater than 95% for the cells to be utilized in the assay. The cells were pelleted and resuspended at 2.5×10^4 cells per ml in tissue culture medium. Cells were added to the drug-containing plates in a volume of 50 μl.
A pretitered aliquot of virus was removed from the freezer −80° C.) and allowed to thaw slowly to room temperature in a biological safety cabinet. The virus was resuspended and diluted into tissue culture medium such that the amount of virus added to each well in a volume of 50 μl will be the amount determined to give complete cell killing at 6 days post-infection. In general the virus pools produced with the IIIB isolate of HIV required the addition of 5 μl of virus per well.
Each plate contained cell control wells (cells only), virus control wells (cells plus virus), drug toxicity control wells (cells plus drug only), drug colorimetric control wells (drug only) as well as experimental wells (drug plus cells plus virus).
After 6 days of incubation at 37° C. in a 5% CO2 incubator, the test plates were analyzed by staining with the tetrazolium dye XTT. XTT-tetrazolium is metabolized by the mitochondrial enzymes of metabolically active cells to a soluble formazan product, allowing the rapid quantitative analysis of the inhibition of HIV-induced cell killing by anti-HIV test substances. On day 6 post-infection plates were removed from the incubator and observed. The use of round bottom microtiter plates allows rapid macroscopic analysis of the activity of a given test compound by the evaluation of pellet size. The results of the macroscopic observations were confirmed and enhanced by further microscopic analysis.
XTT solution was prepared daily as a stock of 1 mg/ml in PBS. Phenazine methosulfate (PMS) solution was prepared at 15 mg/ml in PBS and stored in the dark at −20° C. XTT/PMS stock was prepared immediately before use by diluting the PMS 1:100 into PBS and adding 40 μl per ml of XTT solution. Fifty microliters of XTT/PMS was added to each well of the plate and the plate was incubated for an additional 4 hours at 37° C. Adhesive plate sealers were used in place of the lids, the sealed plate was inverted several times to mix the soluble formazan product and the plate was read spectrophotometrically at A450 nm with a Molecular Devices Vmax plate reader.

“Oligo 41: oligonucleotide having SEQ ID NO:6; sequence not printed, not listed in TABLE 2 (UCGCACCCATCTCTCTCCUUC; chemistry not given here)” was tested, and the “level of activity against the HIV-2 strain ROD” value (compared with the HIV-1 strains) was “enhanced level of activity” and the “activity against HIV-2” value (strain ROD) was “active”.
